Laboratory results: publication PMC12373846, “Hemoglobin as a pseudoperoxidase and drug target for oxidative stress-related diseases” (Signal Transduction and Targeted Therapy, 2025)
Like-named read-outs stand apart in the source and are kept apart here.

Assays:
PAMPA BBB permeability = format: in vitro ADME; conditions: for Papp at 4 h, 50 μM: PAMPA, pH 7.4, 50 μM
Experimental: A parallel artificial membrane permeability assay (PAMPA)^70 was performed to validate the blood-brain barrier permeability of KDS12025. The procedure began by preparing a donor solution of the compound in a pH 7.4 donor buffer. This solution was added to the wells of a deep well plate, followed by the addition of a high-sensitivity UV plate filled with donor buffer to serve as the blank sample. An initial sample for the UV plate was taken to establish a baseline reading. The PAMPA sandwich was then assembled by adding the donor plate mixture to the donor plate well, followed by placing a BBB-lipid coated membrane on top and an acceptor plate filled with acceptor buffer. This setup was incubated at 25 °C for a specific duration to allow diffusion. Post-incubation, a sample from the acceptor plate was taken, and the UV absorbance was measured to determine the permeated amount of the test compound. The permeability was then calculated using the PAMPA explorer program, considering the initial donor concentration and the acceptor's concentration after incubation.

CAT = test: Bubbling liberation (oxygen release) with CAT; format: biochemical; conditions: CAT + H2O2, Fig. 2g
Experimental: (§1) The effects of bubbling with DMSO, HTPEB, and KDS12025 were evaluated. To measure the degree of bubbling quantitatively, the reactions were conducted in sealed tubes connected to an inverted cylinder submerged in a water bath to record the time and volume of the bubbles produced. […] Vehicle, HTPEB, and KDS12025 were added to assess their effects. A similar procedure was followed for Hb.

Hb = molecular target: T1, Hb (Homo sapiens, UniProt P68871); test: Bubbling liberation (oxygen release) with Hb; format: biochemical; conditions: Hb + H2O2, Fig. 2g
T1 construct: purchased Sigma-Aldrich H7379
Experimental: as §1

[1] = DPPH radical scavenging assay; conditions: Fig. S1e
Experimental: In a 96-well microplate, samples (20 μl) at concentrations ranging from 0.1 to 100 μM were mixed with 80 μL of 50 mM sodium phosphate buffer (pH 7.2) and 100 μL of DPPH (1,1-diphenyl-2-picrylhydrazyl) solution (250 μM in methanol) and incubated for 30-min in the dark. Each sample was quantified using a microplate fluorescence reader (SpectraMax iD5, Molecular Devices) at absorbance (517 nm). Edaravone was used as a positive control. The radical scavenging activity was estimated using the following equation: sample absorbance / control absorbance ×100. The dose-response curve, EC50 for the DPPH, was calculated and determined by fitting data with GraphPad Prism software. The fitting method had no special handling of outliers.

C57BL/6J mice = test: Arterial blood P50 and Hb concentration; format: in vivo, mouse; conditions: 0.1, 1 or 10 mg/kg, 24 h
Experimental: The mice were placed in a supine position to expose the thoracic area. The mice were anesthetized with 2.5% sevoflurane and placed in the supine position. Mechanical ventilation was provided via a custom-made face mask connected to a ventilator (Ventstar small animal ventilator R415, RWD) set to deliver room air (FiO2 = 0.21), with a respiratory rate of 180 breaths per min and a tidal volume of 10 μl/g body weight. Without a surgical incision, a 1 ml syringe was directly inserted into the heart to collect bright red arterial blood. Care was taken to avoid venous sampling, and blood was passively drawn into the syringe under physiological arterial pressure. The collected arterial blood was immediately analyzed via an i-STAT® 1 Analyzer (Abbott) with CG8+ cartridges to measure pO2 (mmHg), SO2 (%), and hemoglobin concentrations (g/dL). P₅₀ values were calculated via the following equation: P50=pO2×1−SO2/SO2^1/n, n=2.711

HRP [2] = molecular target: T2, HRP (Armoracia rusticana, UniProt P00433); test: ROS-Glo H2O2 assay with HRP; format: biochemical, horseradish; conditions: for fold change in H2O2 decomposition by HRP: 30-min window, Fig. 2b
T2 sequence (P00433 31-353): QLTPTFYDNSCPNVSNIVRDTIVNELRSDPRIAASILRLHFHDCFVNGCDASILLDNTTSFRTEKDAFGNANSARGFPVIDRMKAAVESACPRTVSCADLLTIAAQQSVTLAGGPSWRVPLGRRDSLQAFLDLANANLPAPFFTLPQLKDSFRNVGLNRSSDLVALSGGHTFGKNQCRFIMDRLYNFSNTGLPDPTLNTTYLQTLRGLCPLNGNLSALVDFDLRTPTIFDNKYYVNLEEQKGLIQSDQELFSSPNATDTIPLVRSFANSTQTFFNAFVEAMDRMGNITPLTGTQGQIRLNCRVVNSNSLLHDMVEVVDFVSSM
Experimental: Hb (Sigma‒Aldrich, H7379), H2O2 (Sigma‒Aldrich, H1009), and Amplex Red reagents (Invitrogen, A12222) were obtained for the study. A 4 μM H2O2 solution was prepared in 50 mM sodium phosphate buffer (pH 7.2). Then, 49 μl of this mixture was mixed with 1 μl of the test compound in DMSO or distilled water. The mixture was combined with an assay mixture of Amplex Red reagent (20 mM stock to 0.1 mM) and HRP (200 U/ml stock to 0.2 U/ml) and added to the wells at 50 μl/well. After a 60-min incubation at 37 °C, resorufin production was quantified via a microplate fluorescence reader (SpectraMax iD5, Molecular Devices) at ex/em = 535/580 nm. […] For the ROS-Glo assay, the H2O2 substrate solution and ROS-Glo detection solution were prepared according to the manufacturer’s instructions. 10 μM H2O2 and drugs were prepared as in the Amplex Red assay, with HRP, Hb, CAT, or GPx added as needed. The mixture was added to the wells at 100 μl/well and incubated for 60 min at 37 °C. H2O2 substrate solution was added, and the mixture was incubated at room temperature for 30 min. After the H2O2 substrate solution was added and incubated at room temperature for 30 min, the ROS-Glo detection solution was added, and the mixture was incubated for 15 min. Luminescence was measured via iD5 microplate readers. […] The U/ml was calculated on the basis of the amount of H2O2 reduced by Hb during the reaction, using μg/ml and U/mg.
To evaluate the extent of peroxidase function facilitation by HTPEB (1 μM) and KDS12025 (1 μM) in HRP (0.2 U/ml) and Hb (10 μg/ml), we used the ROS-Glo assay over 30 and 60 min. The fold change was calculated by dividing the delta values during the 30-min reaction for the vehicle over drug conditions.

HRP [3] = molecular target: T2, HRP; test: Bubbling liberation (oxygen release) with HRP; format: biochemical, horseradish; conditions: HRP + H2O2, Fig. 2g
Experimental: as §1

[4] = read-out: BCS code: permeability classification

T1 sequence (P68871 2-147 limits assumed): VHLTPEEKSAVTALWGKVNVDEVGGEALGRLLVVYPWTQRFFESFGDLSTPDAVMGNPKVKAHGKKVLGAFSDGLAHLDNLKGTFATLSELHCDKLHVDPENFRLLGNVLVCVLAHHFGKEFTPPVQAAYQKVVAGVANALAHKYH
T1 sequence (P69905 2-142 partner limits assumed): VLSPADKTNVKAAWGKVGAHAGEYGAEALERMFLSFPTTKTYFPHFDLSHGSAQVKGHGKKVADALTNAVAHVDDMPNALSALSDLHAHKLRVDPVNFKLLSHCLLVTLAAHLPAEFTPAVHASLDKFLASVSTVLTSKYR

Structure (SMILES) | BCS code: CNS +/- classification (PAMPA BBB permeability; 50 μM, 4 h) | Papp at 4 h, 50 μM (PAMPA BBB permeability; U.V, read-out: Pe (PAMPA BBB permeability)) | Papp at 4 h, 50 μM (PAMPA BBB permeability; [4]) | bubbles per 1 × 1 mm^2 area (CAT) | bubbles per 1 × 1 mm^2 area (Hb) | IC50 [1] | arterial oxygen affinity (P50) vs vehicle (C57BL/6J mice) | total Hb concentration in the blood (C57BL/6J mice) | fold change in H2O2 decomposition by HRP (HRP [2]) | bubbles per 1 × 1 mm^2 area (HRP [3]) | Pe (PAMPA BBB permeability) (PAMPA BBB permeability; 50 μM, 4 h, U.V) | EC50 (HRP [2]; Fig. 1e, read-out: EC50, ROS-Glo assay with replenishing HRP) | tau value, reaction time-response of HRP with HTPEB (HRP [2]; Fig. S1b)
CNc1ccc(NCCc2ccccc2OC)cc1.Cl [KDS12025, N^1-(2-methoxyphenethyl)-N^4-methylbenzene-1,4-diamine hydrochloride salt] | + (> 10) | 67.4 ×10⁻⁶ cm/s | > 0.4 ×10⁻⁶ cm/s | 92.0±6.622 | 13.5±2.533 | 155 µM | did not differ | unaffected | 5.642±0.5747 | 7.3±0.947 |  |  | 
O=C(O)c1cc(NCCc2ccc(C(F)(F)F)cc2)ccc1O [HTPEB, 2-hydroxy-5-[2-(4-trifluoromethyl-phenyl)-ethylamino]-benzoic acid, reference compound] | - (< 10) |  | > 0.4 ×10⁻⁶ cm/s | 84.5±9.957 | 12.5±3.969 | 19.2 µM |  |  | 3.769±0.7911 | 9.0±1.0 | 3.56 10^-6cm/sec | 2.5 µM | 8.57 min
